The values that follow are results of earlier work, collected in publication PMC4027949 (ACS Chemical Biology, 2014).

Usually IC50 stands for the midpoint of a concentration-inhibition curve.

One series concerns the target PDGFRa (Homo sapiens, UniProt P16234). As to conditions: read-out: IC50 PDGFRa; Ibrutinib comparison values.
The next series relates to P38. As to conditions: read-out: IC50 P38; Ibrutinib comparison values.
The subject of the next series is PI3K. The settings on record: read-out: IC50 PI3K; Ibrutinib comparison values.

PDGFRa, sequence (P16234 24-1089, species assumed): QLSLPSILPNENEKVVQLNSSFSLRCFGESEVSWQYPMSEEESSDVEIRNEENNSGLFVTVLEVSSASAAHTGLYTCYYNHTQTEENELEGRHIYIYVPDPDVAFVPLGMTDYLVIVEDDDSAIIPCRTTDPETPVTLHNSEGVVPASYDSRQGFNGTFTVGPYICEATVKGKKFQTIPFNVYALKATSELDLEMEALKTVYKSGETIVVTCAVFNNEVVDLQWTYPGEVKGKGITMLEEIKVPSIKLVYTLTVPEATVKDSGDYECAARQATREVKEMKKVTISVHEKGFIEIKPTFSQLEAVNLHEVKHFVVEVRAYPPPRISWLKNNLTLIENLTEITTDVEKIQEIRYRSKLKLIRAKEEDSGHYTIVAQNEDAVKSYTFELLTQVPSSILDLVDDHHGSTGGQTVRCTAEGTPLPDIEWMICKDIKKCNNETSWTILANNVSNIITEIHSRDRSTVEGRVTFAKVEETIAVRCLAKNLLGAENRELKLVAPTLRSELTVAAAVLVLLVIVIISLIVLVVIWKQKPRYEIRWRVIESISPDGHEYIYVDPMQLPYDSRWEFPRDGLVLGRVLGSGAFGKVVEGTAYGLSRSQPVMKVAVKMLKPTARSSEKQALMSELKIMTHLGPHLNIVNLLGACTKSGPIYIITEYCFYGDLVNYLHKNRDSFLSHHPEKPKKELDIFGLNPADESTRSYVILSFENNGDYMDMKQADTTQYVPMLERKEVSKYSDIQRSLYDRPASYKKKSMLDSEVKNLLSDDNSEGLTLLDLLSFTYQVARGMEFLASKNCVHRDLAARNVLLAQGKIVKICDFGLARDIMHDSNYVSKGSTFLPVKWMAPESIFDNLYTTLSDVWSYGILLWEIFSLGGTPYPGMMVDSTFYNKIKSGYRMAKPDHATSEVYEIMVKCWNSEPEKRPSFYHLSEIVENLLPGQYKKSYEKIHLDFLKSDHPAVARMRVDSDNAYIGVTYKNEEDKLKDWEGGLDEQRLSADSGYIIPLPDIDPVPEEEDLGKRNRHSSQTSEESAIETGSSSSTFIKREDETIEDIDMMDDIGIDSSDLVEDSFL

For `C=CC(=O)N1CCC[C@@H](n2nc(-c3ccc(Oc4ccccc4)cc3)c3c(N)ncnc32)C1` [Ibrutinib], the half-maximal inhibitory concentration (IC50) on PDGFRa is 0.718 µM; with P38, above 10 µM; in the series with PI3K it was above 10 µM.
